Reference: ChEMBL document CHEMBL1817618, “Synthesis and evaluation of dual site inhibitors of 3-deoxy-D-arabino-heptulosonate 7-phosphate synthase” (Bioorg Med Chem Lett, 2011)

Tests used:
[1] = target: T1, Phospho-2-dehydro-3-deoxyheptonate aldolase (Escherichia coli, UniProt C3TIE2); assay: Competitive inhibition of recombinant Escherichia coli DAH7P synthase using PEP as substrate by Michaelis-Menten equation analysis using UV-visible spectrophotometry
[2] = target: T1, Phospho-2-dehydro-3-deoxyheptonate aldolase; assay: Inhibition of recombinant Escherichia coli DAH7P synthase

T1 sequence (C3TIE2 whole entry): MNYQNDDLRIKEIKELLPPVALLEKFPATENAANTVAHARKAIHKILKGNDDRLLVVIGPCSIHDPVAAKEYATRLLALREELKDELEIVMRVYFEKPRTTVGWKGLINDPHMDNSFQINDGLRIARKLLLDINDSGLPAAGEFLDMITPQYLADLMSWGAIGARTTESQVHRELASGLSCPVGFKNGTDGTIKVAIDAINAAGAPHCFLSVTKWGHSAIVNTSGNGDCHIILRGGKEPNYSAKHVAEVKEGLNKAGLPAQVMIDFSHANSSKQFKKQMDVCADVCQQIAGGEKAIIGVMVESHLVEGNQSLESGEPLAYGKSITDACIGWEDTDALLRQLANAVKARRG

| SMILES | Ki [1] [µM] | Ki [2] [µM] |
| --- | --- | --- |
| C=C(CP(=O)(O)O)C(=O)O | – | 270 |
| C/C(=C\P(=O)(O)O)C(=O)O | – | 4.7 |

Now from value to compound, other results behind:

| Ki [1] [µM] | SMILES | Ki [2] [µM] |
| --- | --- | --- |
| 154 | O=C(O)C(=CCCCCOP(=O)(O)O)CP(=O)(O)O (mixture of isomers) | – |
| 5.3 | O=C(O)C(=CP(=O)(O)O)CCCCCOP(=O)(O)O (mixture of isomers) | – |
| 3.6 | O=C(O)/C(=C/P(=O)(O)O)CCCCCBr | – |
